Measured values taken from US8283375B2, “2, 6 xylidine derivatives for the treatment of pain” (Krisani Biosciences (P) Ltd., priority 2011, dated 2012).

System: spinal nerve ligation model for neuropathic pain in rats
Assay: Von Frey test for mechanical allodynia in Chung spinal nerve (L5-L6) ligation model
Assay type: in vivo, SD rats
Details: 150 mg/kg; for analgesic efficacy on mechanical allodynia compared to Vehicle (conclusion in words): b105: 2 and 4.5 hours post-treatment on day 14 and 4.5 hours on day 21, b109: 2 hours post-treatment on days 14 and 21
Excerpt: Experimental animals were male SD rats with a starting weight of 230-250 grams. Total number of animals were n=90 for surgery and n=60 after selection. The animals were caged in groups of 3 in a temperature and humidity controlled area. They were maintained on a 12 hr light/dark cycle and had ad libitum access to food and water.
Neuropathic pain inducement was done by following principles of Chung induced model. The SD rats were anesthetized using ketamine/xylazine sodium. The rats were shaved and placed in prone position for surgery. The L5-L6 spinal nerves were surgically litigated. The rats were returned to their cages for recuperation and recovery under comfortable warm conditions using heat lamps.
After seven days of surgery a pre selection was performed. Animals that indicate signs of post operative pain were to be selected to proceed. Pain is detected by observing when one or more of the criteria are met as follows. Licking of the operated paw, accompanied by gentle biting or pulling on the nails with the mouth; placing the leg in the air; bearing weight on the side contra-lateral to the nerve injury; deformities of the hind paw and abnormal posture and walking; weakness of the left hind paw. […] However, the animal must be able to move its leg to ensure that the L4 spinal nerve is intact. If the animal cannot move its leg, it was excluded from the study.
Second level of selection of the rats was done on day 14 after the surgery. Von Frey test was performed on the preselected rats after day 7 on day 14. Using Von Frey methodology, animals with a pain threshold of ≦26 g for the operated leg will be included in the study. After this selection step, the animals were randomly placed into their experimental groups.
Blank, positive control and test compound: Blank was just the medium used for dissolving other compounds. The positive control was Gabapentin and the test compound was the final compound of formula 1 discussed in the instant disclosure. Three types of experimental groups were formed. Different types of chemicals such as Vehicle and Control were used to determine the efficacy of the chemicals as well comparison of the instant disclosed compound of formula 1, with a positive control was performed. The final compound of the instant disclosure was administered at 100 mg/kg and 150 mg/kg body weight as two different groups. The Gabapentin was administered at 150 mg/kg body weight.
On day 14 blank compound and final compound will be administered once daily starting on study day 14 through study day 21. Gabapentin, the positive control, will be administered 2 hours prior to pain testing on study days 14 and 21. […]
Pain Response Evaluation: Pain response was evaluated using Von Frey test for mechanical allodynia. […]

Compound	duration of analgesic activity / activity compared with gabapentin (in words)	analgesic efficacy on mechanical allodynia compared to Vehicle (conclusion in words)	analgesic efficacy on mechanical allodynia compared to Vehicle (conclusion in words) (listed as compound of formula 1)
NCC1(CC(=O)O)CCCCC1 [Gabapentin, reference compound]	active only at 2 hours post dosing	–	–
CCN(CCOC(=O)CCCCC1CCSS1)CC(=O)Nc1c(C)cccc1C (stereo not shown) [KRB-5b]	prolonged analgesic activity compared to gabapentin	effective as a pain analgesic item	effective in treating the spinal nerve ligation model for neuropathic pain in rats
